# Reference: ChEMBL document CHEMBL6078645, “Expanding the Solvent/Protein Region Occupation of the Non-Nucleoside Reverse Transcriptase Inhibitor Binding Pocket for Improved Broad-Spectrum Anti-HIV-1 Efficacy: from Rigid Phenyl-Diarylpyrimidines to Flexible Hydrophilic Piperidine-Diarylpyrimidines” (J Med Chem, 2024)
# Where “and” joins values, the source holds several entries; their conditions need not be identical. Equal entries are not always repeated.
# Experiments:
# [1] = tested on: Human immunodeficiency virus 1; assay: Antiviral activity against HIV-1 harboring Y181C mutant infected in human MT4 cells assessed as protection against virus-induced cytopathic effect incubated for 5 days by MTT assay; format: functional, organism-based; settings: Human immunodeficiency virus 1, MT4, 120 h
# [2] = tested on: Human immunodeficiency virus 1; assay: Antiviral activity against HIV-1 harboring F227L/V106A double mutant infected in human MT4 cells assessed as protection against virus-induced cytopathic effect incubated for 5 days by MTT assay; format: functional, organism-based
# [3] = tested on: Human immunodeficiency virus 1; assay: Antiviral activity against HIV-1 harboring RES056 mutant infected in human MT4 cells assessed as protection against virus-induced cytopathic effect incubated for 5 days by MTT assay; format: functional, organism-based
# [4] = tested on: Human immunodeficiency virus 1; assay: Antiviral activity against HIV-1 harboring E138K mutant infected in human MT4 cells assessed as protection against virus-induced cytopathic effect incubated for 5 days by MTT assay; format: functional, organism-based; settings: Human immunodeficiency virus 1, MT4, 120 h
# [5] = Selectivity index, ratio of CC50 for cytotoxicity against human MT4 cells assessed as reduction in cell viability to EC50 for antiviral activity against wild type HIV-1 IIIB infected in human MT4 cells assessed as protection against virus-induced cytopathic effect; format: toxicity, cell-based; settings: for selectivity ratio: MT4 cells, read-out: Ratio CC50/EC50
# [6] = (§1) Cytotoxicity against human MT4 cells assessed as reduction in cell viability incubated for 5 days by MTT assay; format: toxicity, cell-based; settings: MT4 cells, time 5 day
# [7] = tested on: Human immunodeficiency virus 1; assay: Antiviral activity against HIV-1 harboring Y188L mutant infected in human MT4 cells assessed as protection against virus-induced cytopathic effect incubated for 5 days by MTT assay; format: functional, organism-based
# [8] = tested on: Human immunodeficiency virus 1; assay: Antiviral activity against HIV-1 harboring L100I mutant infected in human MT4 cells assessed as protection against virus-induced cytopathic effect incubated for 5 days by MTT assay; format: functional, organism-based; settings: Human immunodeficiency virus 1, MT4, 120 h
# [9] = tested on: Human immunodeficiency virus 1; assay: Antiviral activity against wild type HIV-1 IIIB infected in human MT4 cells assessed as protection against virus-induced cytopathic effect incubated for 5 days by MTT assay; format: functional, organism-based
# [10] = tested on: Human immunodeficiency virus 1; assay: Antiviral activity against HIV-1 harboring K103N mutant infected in human MT4 cells assessed as protection against virus-induced cytopathic effect incubated for 5 days by MTT assay; format: functional, organism-based; settings: Human immunodeficiency virus 1, MT4, 120 h
# [11] = biological target: T1, Human immunodeficiency virus type 1 reverse transcriptase (Human immunodeficiency virus 1, UniProt Q72547); assay: Inhibition of wildtype recombinant HIV-1 Reverse transcriptase incubated for 40 mins by spectrofluorometric analysis
# [12] = biological target: CYP2D6 (Homo sapiens, UniProt P10635); assay: Inhibition of CYP2D6 in human liver microsome preincubated with compound for 10 minutes followed NADPH addition and measured after 15 mins by LC-MS/MS analysis; format: ADME, microsomes; settings: human, human liver microsomes
# [13] = biological target: T1, Human immunodeficiency virus type 1 reverse transcriptase; assay: Inhibition of HIV-1 reverse transcriptase
# [14] = biological target: T2, CYP1A2 (Homo sapiens, UniProt P05177); assay: Inhibition of CYP1A2 in human liver microsome preincubated with compound for 10 minutes followed NADPH addition and measured after 15 mins by LC-MS/MS analysis; format: ADME, microsomes; settings: human, human liver microsomes
# T2 sequence (P05177 whole entry): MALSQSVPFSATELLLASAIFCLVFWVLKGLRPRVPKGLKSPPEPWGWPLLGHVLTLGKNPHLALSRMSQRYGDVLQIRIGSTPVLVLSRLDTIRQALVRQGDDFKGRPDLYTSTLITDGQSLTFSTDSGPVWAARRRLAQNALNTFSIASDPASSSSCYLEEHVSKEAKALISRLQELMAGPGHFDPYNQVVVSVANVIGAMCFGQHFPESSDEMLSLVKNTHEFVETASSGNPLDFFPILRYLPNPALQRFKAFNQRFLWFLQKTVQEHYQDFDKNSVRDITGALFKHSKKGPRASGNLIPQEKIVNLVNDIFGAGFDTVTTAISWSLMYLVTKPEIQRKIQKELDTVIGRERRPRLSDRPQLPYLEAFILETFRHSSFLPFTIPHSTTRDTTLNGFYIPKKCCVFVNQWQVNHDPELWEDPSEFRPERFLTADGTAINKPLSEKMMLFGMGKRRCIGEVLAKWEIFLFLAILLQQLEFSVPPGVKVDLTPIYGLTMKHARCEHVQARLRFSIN
# [15] = biological target: T3, CYP3A4 (Homo sapiens, UniProt P08684); assay: Inhibition of CYP3A4 in human liver microsome using testosterone as substrate preincubated with compound for 10 minutes followed NADPH addition and measured after 15 mins by LC-MS/MS analysis; format: ADME, microsomes; settings: human, human liver microsomes, probe testosterone
# [16] = biological target: CYP2C9 (Homo sapiens, UniProt P11712); assay: Inhibition of CYP2C9 in human liver microsome preincubated with compound for 10 minutes followed NADPH addition and measured after 15 mins by LC-MS/MS analysis; format: ADME, microsomes; settings: human, human liver microsomes
# [17] = biological target: T3, CYP3A4; assay: Inhibition of CYP3A4 in human liver microsome using midazolam as substrate preincubated with compound for 10 minutes followed NADPH addition and measured after 15 mins by LC-MS/MS analysis; format: ADME, microsomes; settings: human, human liver microsomes, probe midazolam
# [18] = biological target: Cytochrome P450 2C19 (Homo sapiens, UniProt P33261); assay: Inhibition of CYP2C19 in human liver microsome preincubated with compound for 10 minutes followed NADPH addition and measured after 15 mins by LC-MS/MS analysis; format: ADME, microsomes
# [19] = Solubility of compound in phosphate buffer at pH 7.4 incubated for 24 hrs by HPLC analysis; format: physicochemical
# [20] = Solubility of compound in phosphate buffer at pH 7 incubated for 24 hrs by HPLC analysis; format: physicochemical
# [21] = Solubility of compound in phosphate buffer at pH 2 incubated for 24 hrs by HPLC analysis; format: physicochemical
# [22] = Solubility of compound incubated for 24 hrs by HPLC analysis; format: physicochemical
# [23] = tested on: MT4; assay: as §1; format: toxicity, cell-based; settings: mt4, 120 h, 120 h, time 5 day
# [24] = Human immunodeficiency virus 1, MT4, 120 h
# [25] = Human immunodeficiency virus 1, IIIB, MT4, 120 h
# T3 sequence (P08684 whole entry): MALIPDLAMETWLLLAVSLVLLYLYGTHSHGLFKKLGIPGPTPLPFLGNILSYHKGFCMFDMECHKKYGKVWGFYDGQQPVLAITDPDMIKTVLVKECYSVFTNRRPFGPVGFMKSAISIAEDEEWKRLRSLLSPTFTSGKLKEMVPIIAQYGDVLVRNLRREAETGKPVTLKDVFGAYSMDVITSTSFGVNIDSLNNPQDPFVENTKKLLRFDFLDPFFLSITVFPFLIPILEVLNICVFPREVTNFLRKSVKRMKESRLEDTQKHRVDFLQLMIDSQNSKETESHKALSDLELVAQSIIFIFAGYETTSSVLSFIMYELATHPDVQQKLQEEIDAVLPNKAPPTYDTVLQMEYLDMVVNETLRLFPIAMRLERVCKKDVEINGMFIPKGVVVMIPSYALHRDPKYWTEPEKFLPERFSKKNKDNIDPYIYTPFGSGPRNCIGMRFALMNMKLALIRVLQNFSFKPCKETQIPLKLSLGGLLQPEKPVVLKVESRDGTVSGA
# Cytochrome P450 2C19, sequence (P33261 whole entry): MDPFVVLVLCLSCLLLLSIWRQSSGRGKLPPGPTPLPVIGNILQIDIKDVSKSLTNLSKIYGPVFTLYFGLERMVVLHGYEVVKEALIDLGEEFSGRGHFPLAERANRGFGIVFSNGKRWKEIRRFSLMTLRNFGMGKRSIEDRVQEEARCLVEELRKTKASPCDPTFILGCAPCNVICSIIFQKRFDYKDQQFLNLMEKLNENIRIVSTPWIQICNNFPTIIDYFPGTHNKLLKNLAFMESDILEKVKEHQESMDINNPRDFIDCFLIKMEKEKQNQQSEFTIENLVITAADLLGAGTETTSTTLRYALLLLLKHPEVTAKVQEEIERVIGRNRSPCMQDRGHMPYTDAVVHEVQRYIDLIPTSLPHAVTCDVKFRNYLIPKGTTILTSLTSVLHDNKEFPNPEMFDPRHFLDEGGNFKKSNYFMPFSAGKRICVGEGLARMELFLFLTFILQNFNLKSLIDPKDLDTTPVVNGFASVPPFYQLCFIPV
# CYP2D6, sequence (P10635 whole entry): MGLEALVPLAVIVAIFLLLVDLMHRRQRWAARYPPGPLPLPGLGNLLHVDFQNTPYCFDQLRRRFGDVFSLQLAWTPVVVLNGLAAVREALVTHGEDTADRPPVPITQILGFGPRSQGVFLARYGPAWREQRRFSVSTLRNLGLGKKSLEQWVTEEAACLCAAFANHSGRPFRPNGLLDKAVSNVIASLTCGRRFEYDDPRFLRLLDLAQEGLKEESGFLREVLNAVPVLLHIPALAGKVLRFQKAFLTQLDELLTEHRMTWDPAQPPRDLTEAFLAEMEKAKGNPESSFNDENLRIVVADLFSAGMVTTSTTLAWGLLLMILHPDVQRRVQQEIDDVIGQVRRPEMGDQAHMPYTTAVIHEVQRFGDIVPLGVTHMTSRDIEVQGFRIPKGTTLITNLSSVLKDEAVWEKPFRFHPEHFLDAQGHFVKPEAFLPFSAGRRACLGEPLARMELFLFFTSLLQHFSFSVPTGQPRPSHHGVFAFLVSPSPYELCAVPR
# CYP2C9, sequence (P11712 whole entry): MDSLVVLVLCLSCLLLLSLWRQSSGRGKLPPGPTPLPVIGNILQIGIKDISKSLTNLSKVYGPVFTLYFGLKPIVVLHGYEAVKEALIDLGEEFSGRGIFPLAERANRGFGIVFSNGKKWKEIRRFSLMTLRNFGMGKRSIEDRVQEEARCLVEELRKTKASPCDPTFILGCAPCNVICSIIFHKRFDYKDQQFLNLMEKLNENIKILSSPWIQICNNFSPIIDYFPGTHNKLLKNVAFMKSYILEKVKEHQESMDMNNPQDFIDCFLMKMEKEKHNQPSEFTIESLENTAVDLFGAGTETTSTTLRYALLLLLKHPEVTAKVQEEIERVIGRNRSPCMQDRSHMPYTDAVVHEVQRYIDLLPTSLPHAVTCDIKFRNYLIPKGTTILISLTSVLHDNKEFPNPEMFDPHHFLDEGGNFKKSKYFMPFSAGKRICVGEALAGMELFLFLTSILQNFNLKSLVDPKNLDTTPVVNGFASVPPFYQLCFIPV
compound,measurement,setting,value
COCCNC(=O)c1ccc(CN2CCC(Nc3ncc(CO)c(Oc4c(C)cc(-c5ccncc5)cc4C)n3)CC2)cc1,EC50,[1],34 nM
same,EC50,[2]; [24],64 nM
same,EC50,[3]; [24],58 nM
same,EC50,[4],50 nM
same,selectivity ratio,[5],11200
same,CC50 at 120 h,[6],110000 nM
same,EC50,[7]; [24],46 nM
same,EC50,[8],11 nM
same,EC50,[9]; [25],10 nM
same,EC50,[10],5 nM
CNS(=O)(=O)c1ccc(CN2CCC(Nc3ncc(CO)c(Oc4c(C)cc(-c5ccncc5)cc4C)n3)CC2)cc1,EC50,[2]; [24],234 nM
same,EC50,[3]; [24],405 nM
same,selectivity ratio,[5],> 14800
same,IC50,[11],198 nM
same,CC50 at 120 h,[6],> 212000 nM
same,EC50,[7]; [24],100 nM
same,EC50,[9]; [25],14 nM
N#Cc1ccc(Nc2ncc(CO)c(Oc3c(F)cc(-c4ccc(C#N)cc4)cc3F)n2)cc1,EC50,[1],15 nM
same,EC50,[2]; [24],1100 nM
same,IC50 at 15 min,[12],> 25000 nM
same,EC50,[3]; [24],969 nM
same,EC50,[13],1 nM
same,EC50,[4],4 nM
same,IC50 at 15 min,[14],> 25000 nM
same,IC50 at 15 min,[15],> 25000 nM
same,selectivity ratio,[5],256000
same,CC50 at 120 h,[6],226000 nM
same,EC50,[7]; [24],161 nM
same,EC50,[8],8 nM
same,IC50 at 15 min,[16],> 25000 nM
same,EC50,[10],2 nM
same,IC50 at 15 min,[17],> 25000 nM
same,IC50,[18],14000 nM
Cc1cc(-c2ccncc2)cc(C)c1Oc1nc(NC2CCN(Cc3ccc(C(=O)NCCO)cc3)CC2)ncc1CO,EC50,[2]; [24],2830 nM
same,EC50,[3]; [24],5680 nM
same,selectivity ratio,[5],> 5500
same,IC50,[11],222 nM
same,CC50 at 120 h,[6],> 215000 nM
same,EC50,[7]; [24],2010 nM
same,EC50,[9]; [25],39 nM
Cc1cc(-c2ccncc2)cc(C)c1Oc1nc(NC2CCN(Cc3cccc(C(N)=O)c3)CC2)ncc1CO,EC50,[2]; [24],98 nM
same,EC50,[3]; [24],883 nM
same,selectivity ratio,[5],> 23800
same,IC50,[11],188 nM
same,CC50 at 120 h,[6],> 232000 nM
same,EC50,[7]; [24],101 nM
same,EC50,[9]; [25],10 nM
Cc1cc(-c2ccc(C#N)cc2)cc(C)c1Oc1nc(NC2CCN(Cc3ccc(S(N)(=O)=O)cc3)CC2)ncc1CO.Cl,solubility at 24 h,[19],< 1 µg/mL
same,solubility at 24 h,[20],< 1 µg/mL
same,solubility at 24 h,[21],> 56400 µg/mL
same,solubility at 24 h,[22],5270 µg/mL
Cc1cc(-c2ccc(C#N)cc2)cc(C)c1Oc1nc(NC2CCN(Cc3ccc(S(=O)(=O)N4CCC(O)CC4)cc3)CC2)ncc1CO,EC50,[1],39 nM
same,EC50,[2]; [24],54 nM
same,EC50,[2]; mt4,51 nM
same,EC50,[3]; [24],169 nM
same,EC50,[3]; mt4,307 nM
same,EC50,[13],8 nM and 9 nM
same,EC50,[4],38 nM
same,IC50,[11],595 nM
same,CC50,[23],3250 nM and 18400 nM
same,EC50,[7]; mt4,125 nM and 56 nM
same,EC50,[8],22 nM
same,EC50,[10],9 nM
Cc1cc(C#N)cc(C)c1Oc1nc(Nc2ccc(C#N)cc2)nc(N)c1Br [ETRAVIRINE],solubility at 24 h,[19],< 1 µg/mL
same,solubility at 24 h,[20],< 1 µg/mL
same,EC50,[3]; [24],37 nM
same,solubility at 24 h,[21],127 µg/mL
same,CC50 at 120 h,[6],> 4610 nM
same,EC50,[8],6 nM
same,solubility at 24 h,[22],< 1 µg/mL
Cc1cc(-c2ccncc2)cc(C)c1Oc1nc(NC2CCN(Cc3ccc(S(=O)(=O)NCCO)cc3)CC2)ncc1CO,EC50,[2]; [24],285 nM
same,EC50,[2]; mt4,403 nM
same,EC50,[3]; mt4,1230 nM and 2660 nM
same,selectivity ratio,[5],5080
same,Ratio CC50/EC50,[5]; mt4,> 5837
same,IC50,[11],186 nM
same,CC50,[23],> 210000 nM
same,EC50,[7]; [24],466 nM
same,EC50,[7]; mt4,919 nM
same,EC50,[9]; [25],28 nM
same,EC50,[9]; mt4,36 nM
COCCNS(=O)(=O)c1ccc(CN2CCC(Nc3ncc(CO)c(Oc4c(C)cc(-c5ccncc5)cc4C)n3)CC2)cc1,EC50,[1],39 nM
same,EC50,[2]; [24],122 nM
same,EC50,[3]; [24],157 nM
same,EC50,[4],48 nM
same,selectivity ratio,[5],5130
same,CC50 at 120 h,[6],45900 nM
same,EC50,[7]; [24],48 nM
same,EC50,[8],9 nM
same,EC50,[9]; [25],9 nM
same,EC50,[10],7 nM
Cc1cc(-c2ccncc2)cc(C)c1Oc1nc(NC2CCN(Cc3ccc(C(N)=O)cc3)CC2)ncc1CO,EC50,[2]; [24],229 nM
same,EC50,[3]; [24],1470 nM
same,selectivity ratio,[5],> 24800
same,IC50,[11],183 nM
same,CC50 at 120 h,[6],> 232000 nM
same,EC50,[7]; [24],210 nM
same,EC50,[9]; [25],9 nM
Cc1cc(-c2ccncc2)cc(C)c1Oc1nc(NC2CCN(Cc3ccc(S(N)(=O)=O)cc3)CC2)ncc1CO,EC50,[2]; [24],65 nM
same,EC50,[3]; [24],329 nM
same,selectivity ratio,[5],> 7620
same,IC50,[11],192000 nM
same,CC50 at 120 h,[6],> 218000 nM
same,EC50,[7]; [24],177 nM
same,EC50,[9]; [25],29 nM
CNC(=O)c1ccc(CN2CCC(Nc3ncc(CO)c(Oc4c(C)cc(-c5ccncc5)cc4C)n3)CC2)cc1,EC50,[2]; [24],133 nM
same,EC50,[3]; [24],925 nM
same,selectivity ratio,[5],> 20200
same,IC50,[11],253 nM
same,CC50 at 120 h,[6],> 226000 nM
same,EC50,[7]; [24],122 nM
same,EC50,[9]; [25],11 nM
